This note sets out measurements from paper PMC12132910, “A Novel Inhibitor against the Bromodomain Protein 1 of the Malaria Pathogen Plasmodium Falciparum” (Chemmedchem, 2025).

As a reminder, the EC50 is the concentration at which the effect is half-maximal.

Experiment [1] deals with P. falciparum NF54. The experiment is described as follows: Malaria SYBR green I based fluorescence assay, dose response, NF54. Format: cell-based. Conditions: Plasmodium falciparum, blood stage culture, 72 hours, mean (SD), 1 to 3 biological replicates. How it is done: (§1) The BRDi compounds had modest activity against all three strains (Table 2 ). […]
(§2) Shield1. Parasites were propagated in human red blood cells (blood group 0+) obtained from the Bavarian Red Cross service (BRK) and cultivated under standard conditions in RPMI 1640 (ThermoFisher) supplemented with 0.5% Albumax
(§3) (ThermoFisher), 20 µg/ml Gentamycin, 25 mM Hepes (pH 7.3), and 0.02% hypoxanthine in an atmosphere of 1% O2, 5% CO2, 94% N2.
(§4) Malaria SYBR green I based fluorescence assay
(§5) SYBR Green I based fluorescence assays to determine dose-response curves were performed essentially as described previously (Leidenberger et al., 2017). Briefly, parasite cultures were diluted to 1% ring stage parasitemia and cultivated at 2.5% haematocrit in 96 well plates in the presence of serial half-log dilutions of the compounds ranging from 100 µM to 10 nM or DMSO (dimethyl sulfoxide) corresponding to the highest concentration (0.1%). Chloroquine (C6628, Sigma-Aldrich) was used as control that was not expected to target PfBDP1 and was titrated from 5 µM to 1.6 nM. After 72 hours, cultures were lysed in lysis buffer (20 mM Tris-HCl, 5 mM EDTA, 0.008% saponin (Sigma-Aldrich), 0.08% Triton X (Sigma-Aldrich), 1:10,000 SYBR Green I dye (Invitrogen)) and fluorescence was measured in a Fluoroskan Ascent FL reader (excitation: 485 nm, emission: 530 nm). […]

Experiment [2] relates to P. falciparum blood stage parasites. The experiment is described as follows: Morphology and stage progression of treated synchronous parasites. Format: cell-based, Plasmodium falciparum.
In experiment [3] the test system is P. falciparum K1 (multidrug resistant). The experiment is described as follows: Malaria SYBR green I based fluorescence assay, dose response, K1. Format: cell-based. Conditions: Plasmodium falciparum, K1, 72 h, read-out: EC50 K1. The procedure: as §1
resistant strain K1, MRA-159, contributed by Dennis E. Kyle. […]
as §2, §3, §4, §5

Experiment [4] relates to P. falciparum NF54. The experiment is described as follows: Growth of synchronous ring-stage cultures under treatment, NF54. Format: cell-based, Plasmodium falciparum. The settings on record: 48 h of treatment.
In experiment [5] the test system is 3D7::PfBDP1HADD parasites. Briefly: Dose-response assay in conditional PfBDP1 knockdown parasites. It is filed as cell-based, Plasmodium falciparum. Conditions: 10 nM Shld1 compared to 500 nM Shld1, 72 h.
Text: To validate whether the compounds indeed target the BRD of PfBDP1, we utilized a conditional KD system to modulate the expression levels of PfBDP1 in situ.^[ [15] ^] In the 3D7::PfBDP1HADD line, PfBDP1 is fused at its C‐terminus to a ligand‐regulatable FKBP destabilization domain (DD) that targets the fusion protein for proteasomal degradation but can be stabilized by the Shield1 ligand, and 3xHA epitope tags for detection ^11. […] In contrast, the EC50 of chloroquine was unchanged.
A) Western Blot analysis of 3D7::PfBDP1HADD parasites cultivated in the presence of Shield1 (Shld) in concentrations ranging from 0 to 500 nM over 72 h in duplicates. PfBDP1HADD was detected by anti‐HA antibodies. Histone 3 (H3) was probed as a loading control. […] Growth was determined relative to DMSO controls for each condition after 72 h of culture. N = 4 replicates. […] Binding of PfBDP1HA to target loci was calculated as enrichment relative to histone H3 ChIP performed in parallel. Shown are individual values and median of one representative experiment with technical duplicates. Paired t‐test, p = 0.0015. […]
resistant strain K1, MRA-159, contributed by Dennis E. Kyle. The NF54::PfBDP1HA parasite line was generated by transfection of NF54 parasites with the plasmid pSLI_PfBDP1_3xHA and selection linked integration of the construct in the presence of G418[21]. […]
as §4
SYBR Green I based fluorescence assays to determine dose-response curves were performed essentially as described previously (Leidenberger et al., 2017). […] After 72 hours, cultures were lysed in lysis buffer (20 mM Tris-HCl, 5 mM EDTA, 0.008% saponin (Sigma-Aldrich), 0.08% Triton X (Sigma-Aldrich), 1:10,000 SYBR Green I dye (Invitrogen)) and fluorescence was measured in a Fluoroskan Ascent FL reader (excitation: 485 nm, emission: 530 nm). […]

For experiment [6], the system named is P. falciparum 3D7. The experiment is described as follows: Growth of synchronous ring-stage cultures under treatment, 3D7. It is filed as cell-based, Plasmodium falciparum. The settings on record: 3D7, synchronous ring stage, 48 h of treatment.
In experiment [7] the test system is P. falciparum 3D7. The experiment is described as follows: Malaria SYBR green I based fluorescence assay, dose response, 3D7. Format: cell-based. Conditions: Plasmodium falciparum, blood stage culture, 72 hours, mean (SD), 1 to 3 biological replicates. The procedure:
as §1, §2, §3, §4, §5

Consider `Cc1cc(C(N)=O)ccc1-c1[nH]c(C)c2c1CCCCC2=O` [RMM23, 3-Methyl-4-(3-methyl-4-oxo-2,4,5,6,7,8-hexahydrocyclohepta[c]pyrrol-1-yl)benzamide], for which the values for the half-maximal effective concentration (EC50) (in the experiment with P. falciparum NF54 [1]; in experiment [3]; in the experiment with P. falciparum 3D7 [7]) were 14 µM, 20.9 µM and 18.3 µM, respectively. The “parasite development (morphology) after treatment from ring stage” value in experiment [2] (treatment started at ring stage, normal trophozoites by 24 h) was “failed to undergo DNA replication and schizogony”. Further, the “parasite development after treatment from trophozoite stage” value in experiment [2] (treatment started at trophozoite stage, within 24 h, relative to DMSO control) is “block in egress and reinvasion”. The “parasite growth after treatment of ring-stage culture” value with P. falciparum NF54 [4] and in the experiment on P. falciparum 3D7 [6] was “significantly reduced growth” in each case. The “change of sensitivity (dose-response, EC50) under partial PfBDP1 knockdown” value in experiment [5] is given as “increased sensitivity”.
